Data as given in PubChem BioAssay AID624434 (The Scripps Research Institute Molecular Screening Center, 2012).
Active and inactive are the calls of the source.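 How the source made its calls: active means inhibition of 30% or more at 50 µM; inactive means inhibition under 30% at 50 µM.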

Target: Serine/threonine-protein phosphatase 5 (Homo sapiens) (UniProt P53041)
Assay: single-dose PP5c inhibition check – biochemical, fluorescence, round 5, powder samples, confirmation (AID 624434)
Conditions: purified PP5c, OMFP dephosphorylation, at 50 µM, stronger effect = higher value

Serine/threonine-protein phosphatase 5 (Homo sapiens), sequence (P53041 whole entry, looked up): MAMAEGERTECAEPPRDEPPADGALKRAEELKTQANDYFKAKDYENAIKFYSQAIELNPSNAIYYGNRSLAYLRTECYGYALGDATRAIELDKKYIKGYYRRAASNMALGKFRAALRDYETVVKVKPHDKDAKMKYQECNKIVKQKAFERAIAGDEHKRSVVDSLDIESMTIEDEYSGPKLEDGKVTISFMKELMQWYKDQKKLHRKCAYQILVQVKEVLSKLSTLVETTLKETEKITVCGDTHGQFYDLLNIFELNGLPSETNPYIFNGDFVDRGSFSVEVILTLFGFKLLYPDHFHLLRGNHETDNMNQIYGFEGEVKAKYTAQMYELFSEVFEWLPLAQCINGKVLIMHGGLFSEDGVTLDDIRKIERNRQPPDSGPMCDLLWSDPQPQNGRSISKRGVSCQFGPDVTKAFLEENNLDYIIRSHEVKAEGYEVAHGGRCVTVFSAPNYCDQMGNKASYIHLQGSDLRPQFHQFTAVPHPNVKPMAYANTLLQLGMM

SMILES	inhibition
CC(C)Oc1ccccc1-c1n[nH]nc1C(=O)O	84.9%
NC(=O)c1n[nH]nc1-c1ccccc1	5.21% (inactive)
O=C(O)c1n[nH]nc1-c1cccnc1	4.32% (inactive)
O=C(O)c1n[nH]nc1Br	10.6% (inactive)
O=C(O)c1n[nH]nc1-c1ccccc1F	81.1%
O=Cc1n[nH]nc1-c1ccccc1	1.47% (inactive)
O=C(O)c1n[nH]nc1-c1ccccc1-c1ccccc1	52.6%
CNC(=O)c1n[nH]nc1-c1ccccc1	-1.73% (inactive)
CC(C)c1ccccc1-c1n[nH]nc1C(=O)O	47.4%
N#Cc1n[nH]nc1-c1ccccc1	2.79% (inactive)
O=C(O)c1n[nH]nc1-c1ccccn1	46.8%
COc1ccccc1-c1n[nH]nc1C(=O)O	83.4%
COc1ccc(-c2n[nH]nc2C(=O)O)cc1	70%
CN(C)C(=O)c1n[nH]nc1-c1ccccc1	0.413% (inactive)
COc1cccc(-c2n[nH]nc2C(=O)O)c1	77.6%
O=C(O)c1n[nH]nc1-c1cccc(F)c1	70.5%
CCc1ccccc1-c1n[nH]nc1C(=O)O	62.5%
O=C(O)c1n[nH]nc1C(=O)O	12.4% (inactive)
c1ccc(-c2n[nH]nc2-c2nn[nH]n2)cc1	1.15% (inactive)
O=C(O)c1cnn(-c2ccccc2)n1	3.79% (inactive)
O=C(O)c1n[nH]nc1-c1ccccc1O	81.9%
O=C(O)c1n[nH]nc1-c1ccc(F)cc1	66.5%
O=C(O)c1[nH]ccc1-c1ccccc1	13.8% (inactive)
Cc1ccccc1-c1n[nH]nc1C(=O)O	69.3%
CCOc1ccccc1-c1n[nH]nc1C(=O)O	85.6%
